This is an account of results in patent US10251892B2, “Bicyclic heterocycles as FGFR4 inhibitors” (Incyte Corporation, priority 2015, dated 2019).

Molecules are shown by their SMILES. Where only a bound is given, the exact number is not on record here.

Chain of FGFR3 enzyme (P22607 23-806): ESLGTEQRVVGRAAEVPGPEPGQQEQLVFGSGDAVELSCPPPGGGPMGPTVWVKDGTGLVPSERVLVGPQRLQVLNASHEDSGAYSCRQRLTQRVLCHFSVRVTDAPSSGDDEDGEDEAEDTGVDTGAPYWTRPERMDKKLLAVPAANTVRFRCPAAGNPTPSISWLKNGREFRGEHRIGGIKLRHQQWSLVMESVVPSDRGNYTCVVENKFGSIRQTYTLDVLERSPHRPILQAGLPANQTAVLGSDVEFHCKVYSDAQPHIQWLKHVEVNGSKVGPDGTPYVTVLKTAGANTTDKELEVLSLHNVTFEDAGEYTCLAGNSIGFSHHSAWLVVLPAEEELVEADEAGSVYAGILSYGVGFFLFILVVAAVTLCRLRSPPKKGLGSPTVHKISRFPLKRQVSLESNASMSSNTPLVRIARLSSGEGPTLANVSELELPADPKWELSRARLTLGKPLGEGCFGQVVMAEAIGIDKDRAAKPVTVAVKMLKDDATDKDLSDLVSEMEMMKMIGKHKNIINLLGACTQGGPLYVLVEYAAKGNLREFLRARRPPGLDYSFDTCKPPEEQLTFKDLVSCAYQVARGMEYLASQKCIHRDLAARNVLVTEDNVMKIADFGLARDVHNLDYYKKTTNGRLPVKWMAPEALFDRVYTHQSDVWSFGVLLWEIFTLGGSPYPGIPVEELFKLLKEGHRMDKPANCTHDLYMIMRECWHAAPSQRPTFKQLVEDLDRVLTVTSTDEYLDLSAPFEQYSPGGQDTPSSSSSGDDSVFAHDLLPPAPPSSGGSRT

The target in the test is FGFR3 enzyme (Homo sapiens (Human), UniProt P22607). As to the kind of experiment: FGFR Enzymatic Assay (peptide phosphorylation, FRET), FGFR3. It counts as biochemical. Particulars: IC50 ratio showing FGFR3 selectivity; pre-incubated for 4 hours. As for the experimental part:
The inhibitor potency of the exemplified compounds was measured in an enzyme assay that measures peptide phosphorylation using FRET measurements to detect product formation. Inhibitors were serially diluted in DMSO and a volume of 0.5 μL was transferred to the wells of a 384-well plate.
GraphPad prism3 was used to analyze the data.
For `COc1cc(OC)c(F)c(N2Cc3cnc(-c4cn(CCN5CCOCC5)nc4C)cc3C3(CC3)C2=O)c1F` [Example 52, 2′-(2,6-difluoro-3,5-dimethoxyphenyl)-6′-(3-methyl-1-(2-morpholinoethyl)-1H-pyrazol-4-yl)-1′H-spiro[cyclopropane-1,4′-[2,7]naphthyridin]-3′(2′H)-one], the FGFR1/FGFR3 is on record as greater than 10 and the FGFR4/FGFR3 is on record as greater than 1. With `CCN1C(=O)N(c2c(F)c(OC)cc(OC)c2F)Cc2cnc(-c3ccc(C(=O)NC(C)C)nc3)cc21` [Example 178, 5-(3-(2,6-difluoro-3,5-dimethoxyphenyl)-1-ethyl-2-oxo-1,2,3,4-tetrahydropyrido[4,3-d]pyrimidin-7-yl)-N-isopropylpicolinamide], the FGFR1/FGFR3 is greater than 5 and the FGFR4/FGFR3 is greater than 5.

In the case of `COc1cc(OC)c(F)c(N2Cc3cnc(-c4cnn(C5(C#N)CCC5)c4C)cc3C3(CC3)C2=O)c1F` [Example 149, 1-(4-(2′-(2,6-difluoro-3,5-dimethoxyphenyl)-3′-oxo-2′,3′-dihydro-1′H-spiro[cyclopropane-1,4′-[2,7]naphthyridine]-6′-yl)-5-methyl-1H-pyrazol-1-yl)cyclobutanecarbonitrile], the FGFR1/FGFR3 is reported as greater than 5 and the FGFR4/FGFR3 is reported as greater than 3.

For `CCCn1cc(N2C(=O)N(c3c(F)c(OC)cc(OC)c3F)Cc3cnc(-c4cn(C)nc4C)cc32)cn1` [Example 132, 3-(2,6-difluoro-3,5-dimethoxyphenyl)-7-(1,3-dimethyl-1H-pyrazol-4-yl)-1-(1-propyl-1H-pyrazol-4-yl)-3,4-dihydropyrido[4,3-d]pyrimidin-2(1H)-one], the FGFR1/FGFR3 is on record as greater than 3 and the FGFR4/FGFR3 was greater than 5. As for `COc1cc(OC)c(F)c(N2Cc3cnc(-c4cn(C)nc4C)cc3N(c3cc(F)cc(C#N)c3)C2=O)c1F` [Example 78, 3-(3-(2,6-difluoro-3,5-dimethoxyphenyl)-7-(1,3-dimethyl-1H-pyrazol-4-yl)-2-oxo-3,4-dihydropyrido[4,3-d]pyrimidin-1(2H)-yl)-5-fluorobenzonitrile], the FGFR1/FGFR3 was greater than 5 and the FGFR4/FGFR3 was greater than 3. For `COc1cc(OC)c(F)c(N2Cc3cnc(-c4cn(C)nc4C)cc3N(C3CCN(S(C)(=O)=O)CC3)C2=O)c1F` [Example 71, 3-(2,6-difluoro-3,5-dimethoxyphenyl)-7-(1,3-dimethyl-1H-pyrazol-4-yl)-1-(1-(methylsulfonyl)piperidin-4-yl)-3,4-dihydropyrido[4,3-d]pyrimidin-2(1H)-one], the FGFR1/FGFR3 is listed as greater than 5 and the FGFR4/FGFR3 was greater than 3.

On to `CCN1C(=O)N(c2c(F)c(OC)cc(OC)c2F)Cc2cnc(-c3ccc(C(=O)NCCO)nc3)cc21` [Example 177, 5-(3-(2,6-difluoro-3,5-dimethoxyphenyl)-1-ethyl-2-oxo-1,2,3,4-tetrahydropyrido[4,3-d]pyrimidin-7-yl)-N-(2-hydroxyethyl)picolinamide], for which the FGFR1/FGFR3 is on record as greater than 5 and the FGFR4/FGFR3 was greater than 10. In the case of `COc1cc(OC)c(F)c(N2Cc3cnc(-c4cnn(C5CCN(C(C)=O)C5)c4)cc3C3(CC3)C2=O)c1F` (stereo not drawn) [Example 150, 6′-(1-(1-acetylpyrrolidin-3-yl)-1H-pyrazol-4-yl)-2′-(2,6-difluoro-3,5-dimethoxyphenyl)-1′H-spiro[cyclopropane-1,4′-[2,7]naphthyridin]-3′(2′H)-one], the FGFR1/FGFR3 is on record as greater than 5 and the FGFR4/FGFR3 was greater than 5.

With `CCN1C(=O)N(c2c(F)c(OC)cc(OC)c2F)Cc2cnc(-c3ccc(C4(C#N)CCC4)cc3)cc21` [Example 181, 1-(4-(3-(2,6-difluoro-3,5-dimethoxyphenyl)-1-ethyl-2-oxo-1,2,3,4-tetrahydropyrido[4,3-d]pyrimidin-7-yl)phenyl)cyclobutanecarbonitrile], the FGFR1/FGFR3 was greater than 5 and the FGFR4/FGFR3 is on record as greater than 10. For `COc1cc(OC)c(F)c(N2Cc3cnc(-c4cn(C)nc4C)cc3N(c3cnn(C4CC4)c3)C2=O)c1F` [Example 130, 1-(1-cyclopropyl-1H-pyrazol-4-yl)-3-(2,6-difluoro-3,5-dimethoxyphenyl)-7-(1,3-dimethyl-1H-pyrazol-4-yl)-3,4-dihydropyrido[4,3-d]pyrimidin-2(1H)-one], the FGFR1/FGFR3 is given as greater than 5 and the FGFR4/FGFR3 is listed as greater than 5. Consider `CNC(=O)c1ccc(CN2C(=O)N(c3c(F)c(OC)cc(OC)c3F)Cc3cnc(-c4cn(C)nc4C)cc32)cc1` [Example 62, 4-((3-(2,6-difluoro-3,5-dimethoxyphenyl)-7-(1,3-dimethyl-1H-pyrazol-4-yl)-2-oxo-3,4-dihydropyrido[4,3-d]pyrimidin-1(2H)-yl)methyl)-N-methylbenzamide], for which the FGFR1/FGFR3 is reported as greater than 10 and the FGFR4/FGFR3 is recorded as greater than 5. The matching figures for `COc1cc(OC)c(F)c(N2Cc3cnc(-c4cn(C)nc4C)cc3N(c3ccccc3F)C2=O)c1F` [Example 110, 3-(2,6-difluoro-3,5-dimethoxyphenyl)-7-(1,3-dimethyl-1H-pyrazol-4-yl)-1-(2-fluorophenyl)-3,4-dihydropyrido[4,3-d]pyrimidin-2(1H)-one]: greater than 3 and greater than 5. For `COc1cc(OC)c(F)c(N2Cc3cnc(-c4cn(C)nc4C)cc3N(Cc3cnn(C4CC4)c3)C2=O)c1F` [Example 124, 1-((1-cyclopropyl-1H-pyrazol-4-yl)methyl)-3-(2,6-difluoro-3,5-dimethoxyphenyl)-7-(1,3-dimethyl-1H-pyrazol-4-yl)-3,4-dihydropyrido[4,3-d]pyrimidin-2(1H)-one], the FGFR1/FGFR3 is listed as greater than 10 and the FGFR4/FGFR3 is on record as greater than 10.

Consider `COc1cc(OC)c(F)c(N2Cc3cnc(-c4ccc(C5(C#N)CCC5)nc4)cc3N(Cc3nnc(C)o3)C2=O)c1F` [Example 187, 1-(5-{3-(2,6-difluoro-3,5-dimethoxyphenyl)-1-[(5-methyl-1,3,4-oxadiazol-2-yl)methyl]-2-oxo-1,2,3,4-tetrahydropyrido[4,3-d]pyrimidin-7-yl}pyridin-2-yl)cyclobutanecarbonitrile], for which the FGFR1/FGFR3 is greater than 10 and the FGFR4/FGFR3 is listed as greater than 10. In the case of `COc1cc(OC)c(F)c(N2Cc3cnc(-c4ccc(C#N)nc4)cc3C3(CC3)C2=O)c1F` [Example 20, 5-(2′-(2,6-difluoro-3,5-dimethoxyphenyl)-3′-oxo-2′,3′-dihydro-1′H-spiro[cyclopropane-1,4′-[2,7]naphthyridine]-6′-yl)picolinonitrile], the FGFR1/FGFR3 is listed as greater than 5.

In the case of `COc1cc(OC)c(F)c(N2Cc3cnc(-c4cn(C)nc4C)cc3N(Cc3ccc(C#N)nc3)C2=O)c1F` [Example 74, 5-((3-(2,6-difluoro-3,5-dimethoxyphenyl)-7-(1,3-dimethyl-1H-pyrazol-4-yl)-2-oxo-3,4-dihydropyrido[4,3-d]pyrimidin-1(2H)-yl)methyl)picolinonitrile], the FGFR1/FGFR3 is on record as greater than 5 and the FGFR4/FGFR3 is greater than 5. For the compound `COc1cc(OC)c(F)c(N2Cc3cnc(-c4cnn(CCN5CCC(OC)CC5)c4)cc3C3(CC3)C2=O)c1F` [Example 152, 2′-(2,6-difluoro-3,5-dimethoxyphenyl)-6′-(1-(2-(4-methoxypiperidin-1-yl)ethyl)-1H-pyrazol-4-yl)-1′H-spiro[cyclopropane-1,4′-[2,7]naphthyridin]-3′(2′H)-one], the FGFR1/FGFR3 is on record as greater than 5 and the FGFR4/FGFR3 is reported as greater than 3.

As to `COc1cc(OC)c(F)c(N2Cc3cnc(-c4cn(Cc5cccnc5)nc4C)cc3C3(CC3)C2=O)c1F` [Example 155, 2′-(2,6-difluoro-3,5-dimethoxyphenyl)-6′-(3-methyl-1-(pyridin-3-ylmethyl)-1H-pyrazol-4-yl)-1′H-spiro[cyclopropane-1,4′-[2,7]naphthyridin]-3′(2′H)-one], the FGFR1/FGFR3 is greater than 5 and the FGFR4/FGFR3 is greater than 1. As to `COc1cccc(N2C(=O)N(c3c(F)c(OC)cc(OC)c3F)Cc3cnc(-c4cn(C)nc4C)cc32)c1` [Example 109, 3-(2,6-difluoro-3,5-dimethoxyphenyl)-7-(1,3-dimethyl-1H-pyrazol-4-yl)-1-(3-methoxyphenyl)-3,4-dihydropyrido[4,3-d]pyrimidin-2(1H)-one], the FGFR1/FGFR3 is given as greater than 3 and the FGFR4/FGFR3 is on record as greater than 10.

Turning to `CCN1C(=O)N(c2c(F)c(OC)cc(OC)c2F)Cc2cnc(-c3ccc(CN4CC[C@H](C#N)C4)cc3)cc21` [Example 25, (S)-1-(4-(3-(2,6-difluoro-3,5-dimethoxyphenyl)-1-ethyl-2-oxo-1,2,3,4-tetrahydropyrido[4,3-d]pyrimidin-7-yl)benzyl)pyrrolidine-3-carbonitrile], the FGFR1/FGFR3 was greater than 5 and the FGFR4/FGFR3 is greater than 5. Turning to `CCn1cc(N2C(=O)N(c3c(F)c(OC)cc(OC)c3F)Cc3cnc(-c4cn(C)nc4C)cc32)cn1` [Example 131, 3-(2,6-difluoro-3,5-dimethoxyphenyl)-7-(1,3-dimethyl-1H-pyrazol-4-yl)-1-(1-ethyl-1H-pyrazol-4-yl)-3,4-dihydropyrido[4,3-d]pyrimidin-2(1H)-one], the FGFR1/FGFR3 is reported as greater than 3 and the FGFR4/FGFR3 is reported as greater than 10. As for `COc1cc(OC)c(F)c(N2Cc3cnc(-c4cn(C)nc4C)cc3N(c3ccnnc3)C2=O)c1F` [Example 57, 3-(2,6-difluoro-3,5-dimethoxyphenyl)-7-(1,3-dimethyl-1H-pyrazol-4-yl)-1-(pyridazin-4-yl)-3,4-dihydropyrido[4,3-d]pyrimidin-2(1H)-one], the FGFR1/FGFR3 is listed as greater than 10 and the FGFR4/FGFR3 is greater than 10. On to `COc1cc(OC)c(F)c(N2Cc3cnc(-c4cn(CCN(C)C)nc4C)cc3C3(CC3)C2=O)c1F` [Example 164, 2′-(2,6-difluoro-3,5-dimethoxyphenyl)-6′-(1-(2-(dimethylamino)ethyl)-3-methyl-1H-pyrazol-4-yl)-1′H-spiro[cyclopropane-1,4′-[2,7]naphthyridin]-3′(2′H)-one], for which the FGFR1/FGFR3 is greater than 3 and the FGFR4/FGFR3 is greater than 3.
